Data as given in patent publication US10696651B2, “Heterocyclic compound” (Takeda Pharmaceutical Company Limited, priority 2016, dated 2020).

Columns and labels:
[1] = target: T1, human GCN2 full-length protein (Homo sapiens, UniProt Q9P2K8); experiment: GCN2 enzyme inhibition assay (LanthaScreen TR-FRET); format: biochemical; details: GCN2 enzyme inhibitory activity at compound concentration of 3 μM; Table 3-1; read-out: inhibitory rate
T1 construct: purchased Carna Biosciences, Inc
Procedure, shortened: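 Full-length human GCN2 was preincubated with compound for 1 hr at room temperature, then reacted for 1 hr with substrate and ATP added from a 570 μM ATP / 390 nM substrate solution (stock concentrations). Phosphorylation was detected by TR-FRET with a terbium-labelled anti-eIF2alpha antibody after 1 hr, with enzyme-free wells as control.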

[2] = tested on: ATF4 expression in CCRF-CEM tumor; experiment: In vivo ATF4 expression suppression assay (Western blot of CCRF-CEM xenograft tumor) in the presence of L-asparaginase; details: compound 10 mg/kg oral 8 hr before tumor removal, L-asparaginase 1000 U/kg s.c. 32 hr and 8 hr before, CCRF-CEM xenograft in SCID mouse
Text: One million human acute lymphoblastic leukemia cell lines CCRF-CEM obtained from ATCC (American Type Culture Collection) were suspended in Matrigel solution (Corning) and implanted subcutaneously into 6-week-old female SCID mouse (CLEA Japan, Inc.) by injection. The mice in which the tumor engrafted to a size of about 200-1000 mm^3 tumor volume after transplantation were selected and 3 mice per group were used for the experiment. L-asparaginase (Kyowa Hakko Kogyo Co., Ltd.) was subcutaneously administered at a dose of 1000 U/kg 32 hr and 8 hr before tumor removal. A 0.5% methylcellulose suspension of the compound was orally administered at a dose of 10 mg/kg 8 hr before tumor removal. After tumor removal, protein was extracted using Lysing Matrix I tube (MP Biomedicals) containing a protein extract (10% glycerol, 1% sodium dodecyl sulfate, 62.5 mM Tris-HCl [pH 7.5], protease and phosphatase inhibitors [Complete mini and PhosSTOP, Sigma-Aldrich Co. LLC.]) and subjected to Western blot.
Protein extract solution was subjected to protein quantification with BCA Protein Assay Kit (Thermo Scientific), electrophoresed on 7.5-15% SDS-PAGE gel (DRC), and protein in the gel was transferred to PVDF membrane. The membrane was blocked with Starting Block T20 (PBS) Blocking Buffer (Thermo Scientific). […] Thereafter, chemiluminescence was performed using ImmunoStar LD (Wako Pure Chemical Industries, Ltd.), and luminescence intensity was measured by LAS-3000 image analyzer (Fuji Film Co., Ltd.). Furthermore, the expression level of ATF4 was digitized by quantifying the luminescence intensity using Multi Gauge Ver. […]
Based on the ATF4 expression level of the control group orally administered with 0.5% methylcellulose suspension free of Example compound and the treatment group orally administered with Example compound suspension, the ATF4 expression inhibition ratio (%) of the test compound at a compound dose 10 mg/kg was calculated by the following formula and the results thereof are shown in Table 6. […]

[3] = tested on: osteosarcoma cell line U-2-OS; experiment: In vitro cell proliferation inhibition assay (CellTiter-Glo, low amino acid media); format: cell-based; details: Homo sapiens, U2OS, 72 h, cell proliferation inhibitory rate, McCoy's 5A low amino acid media, Table 4-1
Procedure, shortened: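 Cells seeded at 1000 per well in McCoy's 5A low amino acid medium (25% amino acid content), then exposed to compound for 72 h at 37° C., 5% CO2. ATP measured by CellTiter-Glo luminescence. Inhibition (%) at 100 nM calculated relative to pre-treatment and untreated control wells.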

T1 sequence (Q9P2K8 whole entry): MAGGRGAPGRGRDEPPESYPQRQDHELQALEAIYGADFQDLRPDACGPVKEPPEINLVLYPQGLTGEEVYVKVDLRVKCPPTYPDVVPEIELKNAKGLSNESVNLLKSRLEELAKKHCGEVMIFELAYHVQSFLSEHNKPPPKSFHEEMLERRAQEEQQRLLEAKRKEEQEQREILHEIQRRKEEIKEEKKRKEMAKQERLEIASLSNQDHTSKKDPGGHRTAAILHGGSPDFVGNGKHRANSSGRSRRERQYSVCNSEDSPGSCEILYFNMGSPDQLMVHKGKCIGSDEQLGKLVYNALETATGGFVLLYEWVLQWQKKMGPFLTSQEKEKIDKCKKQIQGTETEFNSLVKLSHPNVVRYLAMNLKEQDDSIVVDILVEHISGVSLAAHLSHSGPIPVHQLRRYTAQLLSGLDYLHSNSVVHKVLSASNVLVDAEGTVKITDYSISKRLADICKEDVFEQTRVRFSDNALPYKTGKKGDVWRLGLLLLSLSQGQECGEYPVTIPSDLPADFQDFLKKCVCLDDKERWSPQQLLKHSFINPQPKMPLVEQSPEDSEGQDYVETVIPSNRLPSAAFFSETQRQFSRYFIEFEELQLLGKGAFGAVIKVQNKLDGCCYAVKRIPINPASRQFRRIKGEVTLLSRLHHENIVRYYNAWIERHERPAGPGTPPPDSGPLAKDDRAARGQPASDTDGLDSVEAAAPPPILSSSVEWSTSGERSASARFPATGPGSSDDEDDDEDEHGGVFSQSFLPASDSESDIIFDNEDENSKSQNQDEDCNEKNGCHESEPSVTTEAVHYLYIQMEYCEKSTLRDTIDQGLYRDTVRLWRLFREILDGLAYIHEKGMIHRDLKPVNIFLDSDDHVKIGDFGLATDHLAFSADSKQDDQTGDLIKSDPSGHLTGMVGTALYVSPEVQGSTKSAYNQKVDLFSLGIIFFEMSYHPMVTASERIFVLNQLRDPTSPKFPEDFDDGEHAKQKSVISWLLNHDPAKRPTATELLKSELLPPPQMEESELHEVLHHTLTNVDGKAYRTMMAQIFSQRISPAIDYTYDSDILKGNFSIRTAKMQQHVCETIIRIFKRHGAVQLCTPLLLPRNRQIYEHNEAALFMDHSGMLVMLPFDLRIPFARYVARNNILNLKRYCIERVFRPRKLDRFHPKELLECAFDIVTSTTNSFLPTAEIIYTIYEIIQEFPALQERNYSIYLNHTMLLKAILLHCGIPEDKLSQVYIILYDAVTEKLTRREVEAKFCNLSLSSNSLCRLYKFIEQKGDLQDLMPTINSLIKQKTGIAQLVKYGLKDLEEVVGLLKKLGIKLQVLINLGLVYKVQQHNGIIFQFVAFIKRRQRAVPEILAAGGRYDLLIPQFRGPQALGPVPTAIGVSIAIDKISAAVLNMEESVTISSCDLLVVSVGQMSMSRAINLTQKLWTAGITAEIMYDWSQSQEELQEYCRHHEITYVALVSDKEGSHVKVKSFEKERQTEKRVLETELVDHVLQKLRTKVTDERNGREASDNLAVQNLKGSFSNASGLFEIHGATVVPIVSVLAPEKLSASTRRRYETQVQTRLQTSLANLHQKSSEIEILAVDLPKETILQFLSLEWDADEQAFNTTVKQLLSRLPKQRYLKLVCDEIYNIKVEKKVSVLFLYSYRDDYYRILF

| inhibition at 3 µM [1] | Structure (SMILES) | in vivo ATF4 expression inhibition ratio (%) [2] | inhibition at 0.1 µM [3] |
| --- | --- | --- | --- |
| 100% | Nc1ncc(C#Cc2c(F)ccc(NS(=O)(=O)c3cc(Cl)cc(CO)c3Cl)c2F)cn1 [Example 4, N-(3-((2-aminopyrimidin-5-yl)ethynyl)-2,4-difluorophenyl)-2,5-dichloro-3-(hydroxymethyl)benzenesulfonamide] | 76% | 90% |
| 100% | COc1ncc(Cl)cc1S(=O)(=O)Nc1ccc(F)c(C#Cc2cnc(N)nc2)c1F [Example 7, N-(3-((2-aminopyrimidin-5-yl)ethynyl)-2,4-difluorophenyl)-5-chloro-2-methoxypyridine-3-sulfonamide] | 74% | 96% |
